Activity calls are given as the source filed them.
How the values were obtained:
[1] = biological target: T1, Insulin-degrading enzyme (Homo sapiens, UniProt P14735); assay: activators of recombinant IDE enzyme, dose response, counter-screen for IDE activator project, biochemical, fluorescence polarization (AID 588681)
T1 sequence (P14735 whole entry): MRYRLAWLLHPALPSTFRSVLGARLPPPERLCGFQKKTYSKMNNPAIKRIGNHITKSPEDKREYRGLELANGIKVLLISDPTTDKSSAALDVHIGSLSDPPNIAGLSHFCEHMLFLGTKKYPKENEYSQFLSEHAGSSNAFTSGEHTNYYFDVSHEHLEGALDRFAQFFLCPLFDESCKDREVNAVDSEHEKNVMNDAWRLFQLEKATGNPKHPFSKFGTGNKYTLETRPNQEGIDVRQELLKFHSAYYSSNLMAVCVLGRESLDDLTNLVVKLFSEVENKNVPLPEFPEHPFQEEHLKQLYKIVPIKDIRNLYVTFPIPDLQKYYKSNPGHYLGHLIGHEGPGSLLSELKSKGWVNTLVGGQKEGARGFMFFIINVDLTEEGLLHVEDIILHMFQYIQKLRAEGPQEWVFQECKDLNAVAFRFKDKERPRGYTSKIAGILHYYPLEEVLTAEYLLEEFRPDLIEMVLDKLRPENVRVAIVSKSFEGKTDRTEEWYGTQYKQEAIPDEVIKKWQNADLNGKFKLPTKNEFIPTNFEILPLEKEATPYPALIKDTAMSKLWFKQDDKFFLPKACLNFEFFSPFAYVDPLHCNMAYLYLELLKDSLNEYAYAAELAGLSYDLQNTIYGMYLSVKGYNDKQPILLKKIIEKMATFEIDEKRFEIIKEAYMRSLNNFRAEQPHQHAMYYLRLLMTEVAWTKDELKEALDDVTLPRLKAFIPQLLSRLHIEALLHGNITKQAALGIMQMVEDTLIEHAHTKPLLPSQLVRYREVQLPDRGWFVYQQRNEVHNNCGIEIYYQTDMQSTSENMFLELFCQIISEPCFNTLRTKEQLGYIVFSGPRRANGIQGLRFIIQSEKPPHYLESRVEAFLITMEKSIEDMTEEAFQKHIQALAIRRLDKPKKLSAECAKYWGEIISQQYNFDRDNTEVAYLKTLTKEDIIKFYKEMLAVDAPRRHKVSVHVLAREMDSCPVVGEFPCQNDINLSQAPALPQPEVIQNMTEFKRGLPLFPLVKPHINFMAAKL

[2] = biological target: T1, Insulin-degrading enzyme; assay: activators of endogenous IDE in HEK cells, dose response, cell-based, fluorescence polarization (AID 588439); format: functional
[3] = system: HEK293; assay: HEK cell cytotoxicity by LDH release, dose response, cytotoxicity control for IDE activator project, fluorescence, HEK cells (AID 588440); format: functional, cell-based; details: Homo sapiens;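 also: cytotoxicity by LDH release measuring loss of membrane integrity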
[4] = system: HEK293; assay: optical interference in Abeta FP readout, dose response, artefact control for IDE activator project, biochemical, fluorescence polarization (AID 588442); format: functional, cell-based; details: Homo sapiens
[5] = biological target: T2, Delta-type opioid receptor (Homo sapiens, UniProt P41143); assay: HTS Image-Based Screen for Antagonists of the DOR Receptor. [Related pubchem assays (depositor defined):AID1777, AID1785, AID1786, AID2133]; format: functional
T2 sequence (P41143 whole entry): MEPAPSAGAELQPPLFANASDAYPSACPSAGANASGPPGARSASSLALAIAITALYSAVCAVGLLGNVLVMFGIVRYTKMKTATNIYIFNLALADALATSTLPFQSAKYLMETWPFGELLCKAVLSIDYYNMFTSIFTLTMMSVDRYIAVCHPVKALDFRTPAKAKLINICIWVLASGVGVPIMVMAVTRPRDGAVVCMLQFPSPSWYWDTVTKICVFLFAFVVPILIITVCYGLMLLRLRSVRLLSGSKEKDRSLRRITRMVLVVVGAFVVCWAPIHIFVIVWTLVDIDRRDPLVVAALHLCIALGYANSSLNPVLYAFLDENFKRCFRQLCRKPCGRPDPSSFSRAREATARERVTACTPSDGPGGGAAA

[6] = biological target: Mu-type opioid receptor (Homo sapiens, UniProt P35372); assay: HTS Image-Based Screen for Agonists of the MOR Receptor. [Related pubchem assays (depositor defined):AID1777, AID1785, AID1786, AID2133]; format: functional;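 also: imaging of beta-arrestin GFP recruitment into spots after receptor activation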
[7] = system: Streptococcus sp. 'group A'; assay: growth inhibition of control SK(-) GAS strain, dose response, counter-screen for streptokinase expression inhibitor project, luminescence, kanamycin, BacTiterGlo, confirmation (AID 1900); format: functional, organism-based
[8] = biological target: T2, Delta-type opioid receptor; assay: HTS Image-Based Screen for Agonists of the DOR Receptor. [Related pubchem assays (depositor defined):AID1777, AID1786, AID2133]; format: functional
[9] = biological target: T3, Streptokinase A (Streptococcus pyogenes serotype M1, UniProt P10520); assay: S. pyogenes streptokinase expression inhibitors, potency, dose response, plasminogen activation absorbance, OD405 (AID 1914); format: functional, Streptococcus pyogenes M1 GAS;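 also: secreted streptokinase activity via plasminogen activation per viability signal from cell pellet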
T3 sequence (P10520 whole entry): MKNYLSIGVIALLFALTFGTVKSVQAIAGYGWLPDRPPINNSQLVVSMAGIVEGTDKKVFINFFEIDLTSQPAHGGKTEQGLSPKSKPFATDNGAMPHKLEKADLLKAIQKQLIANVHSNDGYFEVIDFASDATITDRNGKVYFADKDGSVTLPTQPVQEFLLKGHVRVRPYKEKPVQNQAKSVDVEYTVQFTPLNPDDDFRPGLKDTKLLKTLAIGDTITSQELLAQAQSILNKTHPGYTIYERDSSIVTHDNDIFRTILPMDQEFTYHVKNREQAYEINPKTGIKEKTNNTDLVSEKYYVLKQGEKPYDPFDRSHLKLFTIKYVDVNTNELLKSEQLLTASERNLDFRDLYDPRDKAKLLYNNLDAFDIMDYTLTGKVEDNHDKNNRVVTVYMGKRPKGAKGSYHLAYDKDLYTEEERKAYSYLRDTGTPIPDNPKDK

[10] = biological target: T4, Kappa-type opioid receptor (Homo sapiens, UniProt P41145); format: functional
T4 sequence (P41145 whole entry): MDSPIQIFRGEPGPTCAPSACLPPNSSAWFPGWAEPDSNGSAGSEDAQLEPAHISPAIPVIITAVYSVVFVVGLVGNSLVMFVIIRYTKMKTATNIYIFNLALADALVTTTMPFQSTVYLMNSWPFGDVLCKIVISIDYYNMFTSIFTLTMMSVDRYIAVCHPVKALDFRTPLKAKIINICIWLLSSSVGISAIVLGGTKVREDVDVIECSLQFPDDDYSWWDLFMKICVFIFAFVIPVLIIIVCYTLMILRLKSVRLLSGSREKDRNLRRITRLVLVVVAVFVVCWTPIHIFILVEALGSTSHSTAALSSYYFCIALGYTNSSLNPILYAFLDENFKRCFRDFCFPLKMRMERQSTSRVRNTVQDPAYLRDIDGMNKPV

[11] = biological target: Bifunctional protein GlmU (Mycobacterium tuberculosis, UniProt P9WMN3); assay: Inhibitors of Mycobacterial Glucosamine-1-phosphate acetyl transferase (GlmU). Secondary screen.; design: species or system Mycobacterium tuberculosis H37Rv
Sequence of Bifunctional protein GlmU (P9WMN3 whole entry): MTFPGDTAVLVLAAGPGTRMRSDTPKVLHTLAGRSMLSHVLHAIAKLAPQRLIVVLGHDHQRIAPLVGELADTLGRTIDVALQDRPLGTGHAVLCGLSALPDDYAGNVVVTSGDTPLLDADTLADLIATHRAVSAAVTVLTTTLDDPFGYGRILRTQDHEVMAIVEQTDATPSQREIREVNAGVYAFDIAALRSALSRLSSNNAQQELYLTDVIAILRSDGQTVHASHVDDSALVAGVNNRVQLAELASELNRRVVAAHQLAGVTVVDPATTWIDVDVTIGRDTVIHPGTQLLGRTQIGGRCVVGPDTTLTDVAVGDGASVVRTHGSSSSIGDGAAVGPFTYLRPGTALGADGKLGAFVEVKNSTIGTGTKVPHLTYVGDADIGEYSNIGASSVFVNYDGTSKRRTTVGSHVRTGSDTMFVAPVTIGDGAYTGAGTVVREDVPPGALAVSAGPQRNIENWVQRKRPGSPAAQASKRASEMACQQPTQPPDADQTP

[12] = biological target: Beta-galactosidase (Escherichia coli, UniProt Q8VNN2); format: functional
[13] = biological target: T4, Kappa-type opioid receptor; format: functional; remark: listed apart in the source
[14] = biological target: Induced myeloid leukemia cell differentiation protein Mcl-1 (Homo sapiens, UniProt Q07820); format: functional
[15] = system: Streptococcus; assay: Group A Streptococcus viability loss, dose response, counter-screen for streptokinase expression inhibitor project, luminescence, BacTiterGlo (AID 1915); format: functional, organism-based;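 also: potency for reduction of bacterial viability or growth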
[16] = system: CHO; assay: cytotoxicity in TLR9-MyD88 CHO cells, dose response, cytotoxicity control for TLR9-MyD88 binding inhibitor project, cell-based, luminescence (AID 588339); format: functional, hamster; details: Cricetulus griseus;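 also: CHO cells stably coexpressing TLR9 and MyD88 fusions from primary screen; compound exposure lasted 48 hours before viability readout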
[17] = biological target: T5, Replicative DNA helicase DnaB (Mycobacterium tuberculosis, UniProt P9WMR3); assay: DnaB intein splicing inhibitors, dose response, biochemical, cell-free fluorescence (AID 449749); format: functional
T5 sequence (P9WMR3 whole entry): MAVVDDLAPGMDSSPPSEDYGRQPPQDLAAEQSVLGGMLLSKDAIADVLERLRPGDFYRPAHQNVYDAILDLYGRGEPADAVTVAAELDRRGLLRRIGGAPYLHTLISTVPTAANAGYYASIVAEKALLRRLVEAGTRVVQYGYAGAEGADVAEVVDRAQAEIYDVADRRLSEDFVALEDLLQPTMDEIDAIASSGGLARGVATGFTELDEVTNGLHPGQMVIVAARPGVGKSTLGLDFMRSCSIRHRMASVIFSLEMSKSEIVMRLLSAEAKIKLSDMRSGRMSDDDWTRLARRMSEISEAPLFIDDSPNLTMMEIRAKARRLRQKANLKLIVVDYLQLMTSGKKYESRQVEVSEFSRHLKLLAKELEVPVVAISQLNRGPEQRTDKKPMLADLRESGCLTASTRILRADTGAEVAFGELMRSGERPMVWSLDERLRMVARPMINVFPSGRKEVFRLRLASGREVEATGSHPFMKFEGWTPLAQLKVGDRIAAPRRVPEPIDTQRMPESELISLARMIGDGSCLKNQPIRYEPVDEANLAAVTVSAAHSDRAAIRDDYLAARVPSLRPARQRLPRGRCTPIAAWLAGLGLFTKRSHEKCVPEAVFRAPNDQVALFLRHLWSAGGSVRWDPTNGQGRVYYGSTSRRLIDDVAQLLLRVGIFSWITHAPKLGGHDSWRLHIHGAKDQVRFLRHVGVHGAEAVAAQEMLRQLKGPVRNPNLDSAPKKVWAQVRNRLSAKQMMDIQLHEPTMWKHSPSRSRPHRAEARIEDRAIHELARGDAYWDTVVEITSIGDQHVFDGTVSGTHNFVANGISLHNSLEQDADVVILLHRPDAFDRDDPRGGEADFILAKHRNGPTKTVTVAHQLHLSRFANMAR

[18] = biological target: T6, Protein RecA (Mycobacterium tuberculosis, UniProt P9WHJ3); assay: Fluorescence Cell-Free Homogeneous Dose Retest to Identify Inhibitors of RecA-Intein Splicing Activity. [Related pubchem assays (depositor defined):AID2097, AID2223, AID489010, AID492950]; format: functional
T6 sequence (P9WHJ3 whole entry): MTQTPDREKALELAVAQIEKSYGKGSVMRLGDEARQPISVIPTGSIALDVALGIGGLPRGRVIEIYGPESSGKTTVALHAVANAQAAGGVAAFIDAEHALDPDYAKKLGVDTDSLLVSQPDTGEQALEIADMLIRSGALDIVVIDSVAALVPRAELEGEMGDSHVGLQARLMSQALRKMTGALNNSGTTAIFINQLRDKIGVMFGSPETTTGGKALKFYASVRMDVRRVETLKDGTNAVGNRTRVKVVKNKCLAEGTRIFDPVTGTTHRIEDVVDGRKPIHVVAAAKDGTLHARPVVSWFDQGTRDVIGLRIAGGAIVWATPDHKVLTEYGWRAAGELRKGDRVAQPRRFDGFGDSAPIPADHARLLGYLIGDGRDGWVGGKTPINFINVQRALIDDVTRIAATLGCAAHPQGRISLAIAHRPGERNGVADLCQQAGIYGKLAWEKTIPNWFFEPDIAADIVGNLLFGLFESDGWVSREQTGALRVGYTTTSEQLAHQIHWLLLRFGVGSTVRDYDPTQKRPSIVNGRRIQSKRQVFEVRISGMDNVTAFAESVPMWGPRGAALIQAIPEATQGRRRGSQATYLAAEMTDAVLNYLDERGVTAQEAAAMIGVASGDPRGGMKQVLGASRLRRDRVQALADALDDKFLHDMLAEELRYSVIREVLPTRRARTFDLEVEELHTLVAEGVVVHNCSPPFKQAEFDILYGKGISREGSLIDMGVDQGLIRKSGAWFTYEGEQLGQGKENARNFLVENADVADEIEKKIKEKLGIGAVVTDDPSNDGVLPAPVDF

[19] = biological target: Beta Lactamase (Pseudomonas aeruginosa, UniProt Q932Y6); assay: beta-lactamase reporter inhibitor potency, dose response, artefact control for TLR9-MyD88 binding inhibitor project, BLA reporter cells, FRET fluorescence (AID 588341); format: cell-based;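 also: cell based assay in CHO-K1 cells stably expressing beta-lactamase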
[20] = biological target: T7, Fatty acid synthase (Homo sapiens, UniProt P49327); assay: FAS thioesterase domain inhibitors, dose response, biochemical, endpoint fluorescence intensity, uHTS hits (AID 624327); format: functional;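 also: fluorescence from hydrolysis of an O-methyl fluorescein acyl ester substrate by the enzyme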
T7 sequence (P49327 whole entry, the tested form may be a part): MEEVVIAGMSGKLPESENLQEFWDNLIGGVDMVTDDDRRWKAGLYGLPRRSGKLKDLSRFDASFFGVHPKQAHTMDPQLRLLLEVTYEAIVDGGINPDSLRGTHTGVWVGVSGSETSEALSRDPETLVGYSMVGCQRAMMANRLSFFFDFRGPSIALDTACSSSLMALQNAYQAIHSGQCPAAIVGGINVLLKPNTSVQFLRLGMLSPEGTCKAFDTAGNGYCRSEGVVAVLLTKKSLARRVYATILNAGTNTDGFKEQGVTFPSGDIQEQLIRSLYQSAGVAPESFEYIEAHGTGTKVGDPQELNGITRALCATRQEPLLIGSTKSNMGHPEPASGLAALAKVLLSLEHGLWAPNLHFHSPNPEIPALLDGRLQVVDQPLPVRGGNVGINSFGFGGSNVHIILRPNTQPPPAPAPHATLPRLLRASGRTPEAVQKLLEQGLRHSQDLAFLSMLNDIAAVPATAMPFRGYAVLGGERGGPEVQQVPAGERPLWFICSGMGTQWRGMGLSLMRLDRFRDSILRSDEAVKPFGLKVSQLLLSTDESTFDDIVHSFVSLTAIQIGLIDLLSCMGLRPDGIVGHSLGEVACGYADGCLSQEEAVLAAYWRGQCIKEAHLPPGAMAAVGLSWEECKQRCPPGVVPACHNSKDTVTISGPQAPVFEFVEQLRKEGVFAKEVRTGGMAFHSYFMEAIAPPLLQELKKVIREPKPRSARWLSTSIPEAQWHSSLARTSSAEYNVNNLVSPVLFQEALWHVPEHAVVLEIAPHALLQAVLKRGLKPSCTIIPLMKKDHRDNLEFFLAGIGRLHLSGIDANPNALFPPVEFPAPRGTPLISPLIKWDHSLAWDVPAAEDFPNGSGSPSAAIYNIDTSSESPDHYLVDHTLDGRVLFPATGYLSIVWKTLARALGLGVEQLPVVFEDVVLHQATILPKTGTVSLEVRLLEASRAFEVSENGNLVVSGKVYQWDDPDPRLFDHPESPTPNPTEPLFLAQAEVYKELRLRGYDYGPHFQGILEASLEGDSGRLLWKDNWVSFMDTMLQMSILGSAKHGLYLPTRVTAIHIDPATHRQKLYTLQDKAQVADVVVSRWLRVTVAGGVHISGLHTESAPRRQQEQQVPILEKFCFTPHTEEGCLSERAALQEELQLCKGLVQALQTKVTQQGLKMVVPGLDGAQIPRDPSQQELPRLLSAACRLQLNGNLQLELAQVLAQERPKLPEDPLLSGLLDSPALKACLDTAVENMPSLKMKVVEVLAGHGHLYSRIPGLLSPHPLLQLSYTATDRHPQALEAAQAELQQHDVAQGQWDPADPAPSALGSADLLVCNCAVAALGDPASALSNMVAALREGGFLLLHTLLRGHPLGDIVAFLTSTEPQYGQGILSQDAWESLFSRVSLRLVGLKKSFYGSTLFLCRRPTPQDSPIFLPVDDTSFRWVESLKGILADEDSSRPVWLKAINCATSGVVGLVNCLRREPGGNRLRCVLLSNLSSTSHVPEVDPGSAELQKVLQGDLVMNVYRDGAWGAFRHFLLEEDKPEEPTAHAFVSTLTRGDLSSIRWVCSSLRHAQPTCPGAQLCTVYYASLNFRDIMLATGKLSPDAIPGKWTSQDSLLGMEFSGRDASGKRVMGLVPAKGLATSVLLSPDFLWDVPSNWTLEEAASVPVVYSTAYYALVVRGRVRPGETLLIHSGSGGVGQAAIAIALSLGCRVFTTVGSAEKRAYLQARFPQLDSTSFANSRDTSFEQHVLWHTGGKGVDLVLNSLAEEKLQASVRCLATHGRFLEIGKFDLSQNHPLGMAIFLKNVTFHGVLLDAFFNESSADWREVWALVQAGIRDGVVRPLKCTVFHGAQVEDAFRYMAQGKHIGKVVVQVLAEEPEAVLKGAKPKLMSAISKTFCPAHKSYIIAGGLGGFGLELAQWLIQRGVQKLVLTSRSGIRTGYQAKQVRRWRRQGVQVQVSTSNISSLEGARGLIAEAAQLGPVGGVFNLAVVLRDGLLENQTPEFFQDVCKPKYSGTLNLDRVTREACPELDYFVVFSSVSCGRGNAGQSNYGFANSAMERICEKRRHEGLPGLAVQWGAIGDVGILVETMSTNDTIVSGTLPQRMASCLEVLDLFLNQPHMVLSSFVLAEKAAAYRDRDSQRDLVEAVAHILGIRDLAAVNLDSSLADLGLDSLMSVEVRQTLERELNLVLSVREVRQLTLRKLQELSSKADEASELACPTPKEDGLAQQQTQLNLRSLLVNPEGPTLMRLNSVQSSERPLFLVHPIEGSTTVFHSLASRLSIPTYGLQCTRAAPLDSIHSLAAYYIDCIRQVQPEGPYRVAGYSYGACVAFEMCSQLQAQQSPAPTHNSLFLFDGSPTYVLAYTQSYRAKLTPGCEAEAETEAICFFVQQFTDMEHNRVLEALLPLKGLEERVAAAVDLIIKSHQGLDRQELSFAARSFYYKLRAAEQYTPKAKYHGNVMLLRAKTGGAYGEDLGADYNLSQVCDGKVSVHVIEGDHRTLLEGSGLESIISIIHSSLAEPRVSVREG

[21] = biological target: T7, Fatty acid synthase; assay: FAS thioesterase domain inhibitors, dose response, biochemical, kinetic fluorescence intensity (AID 624326); format: functional;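 also: rate of fluorescence rise from hydrolysis of a fluorogenic O-methyl fluorescein ester substrate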
[22] = biological target: 26S proteasome non-ATPase regulatory subunit 14 (Homo sapiens, UniProt O00487); assay: inhibition of proteasome subunit RPN11 – biochemical, fluorescence polarization, uHTS hits, confirmation (AID 602368); format: functional
Sequence of 26S proteasome non-ATPase regulatory subunit 14 (O00487 whole entry): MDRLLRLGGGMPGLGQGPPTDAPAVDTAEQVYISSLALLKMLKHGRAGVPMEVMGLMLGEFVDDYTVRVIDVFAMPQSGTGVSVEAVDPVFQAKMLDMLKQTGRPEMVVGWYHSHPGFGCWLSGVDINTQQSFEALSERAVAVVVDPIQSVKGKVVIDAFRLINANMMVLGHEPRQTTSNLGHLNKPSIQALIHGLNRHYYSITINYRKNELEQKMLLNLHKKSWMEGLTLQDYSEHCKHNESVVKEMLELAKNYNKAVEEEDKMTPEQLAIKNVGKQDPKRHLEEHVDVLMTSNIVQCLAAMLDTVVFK

[23] = biological target: 72 kDa type IV collagenase (Homo sapiens, UniProt P08253); assay: Dose Response validation of uHTS RPN11 inhibitor hits using a MMP-2 Fluorescence assay.; format: functional
Sequence of 72 kDa type IV collagenase (P08253 whole entry): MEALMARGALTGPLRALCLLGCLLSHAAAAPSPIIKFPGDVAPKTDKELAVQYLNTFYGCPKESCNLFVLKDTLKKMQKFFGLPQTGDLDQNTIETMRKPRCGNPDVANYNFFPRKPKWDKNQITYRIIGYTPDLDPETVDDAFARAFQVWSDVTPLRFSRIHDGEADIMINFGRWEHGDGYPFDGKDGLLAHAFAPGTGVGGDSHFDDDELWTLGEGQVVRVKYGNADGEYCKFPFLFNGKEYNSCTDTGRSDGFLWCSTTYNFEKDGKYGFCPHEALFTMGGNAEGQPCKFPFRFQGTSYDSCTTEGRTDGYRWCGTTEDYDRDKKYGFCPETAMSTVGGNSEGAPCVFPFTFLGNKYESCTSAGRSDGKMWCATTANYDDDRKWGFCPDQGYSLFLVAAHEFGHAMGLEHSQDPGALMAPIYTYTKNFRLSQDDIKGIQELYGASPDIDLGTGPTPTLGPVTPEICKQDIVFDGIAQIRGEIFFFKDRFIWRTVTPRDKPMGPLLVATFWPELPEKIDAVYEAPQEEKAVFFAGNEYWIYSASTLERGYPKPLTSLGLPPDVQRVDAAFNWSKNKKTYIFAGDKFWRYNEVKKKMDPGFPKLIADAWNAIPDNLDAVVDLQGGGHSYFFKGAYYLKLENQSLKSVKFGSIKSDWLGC

[24] = biological target: Prothrombin (Bos taurus, UniProt P00735); assay: thrombin inhibition, dose response, biochemical, fluorescence polarization, uHTS hits (AID 602369); format: functional
[25] = biological target: T8, Probable nicotinate-nucleotide adenylyltransferase (Staphylococcus aureus (strain N315), UniProt P65502); format: functional, Staphylococcus aureus subsp. aureus N315;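 as to IC50 Mean: confirmatory dose-response retesting of NadD inhibitor hits first found in an ultra-high-throughput screen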
T8 sequence (P65502 whole entry): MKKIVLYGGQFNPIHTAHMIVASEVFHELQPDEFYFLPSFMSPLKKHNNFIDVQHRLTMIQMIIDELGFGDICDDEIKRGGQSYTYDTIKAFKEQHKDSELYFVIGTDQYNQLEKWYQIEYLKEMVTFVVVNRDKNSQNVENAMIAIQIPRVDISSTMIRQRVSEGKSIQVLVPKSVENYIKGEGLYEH

[26] = biological target: T8, Probable nicotinate-nucleotide adenylyltransferase; format: functional, Staphylococcus aureus subsp. aureus N315; details: read-out: IC50_Mean
[27] = biological target: Aurora kinase A (Homo sapiens, UniProt O14965); format: functional;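 also: value from the Navigating the Kinome kinase panel profiling, panel entry STK6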
[28] = biological target: Aurora kinase B (Homo sapiens, UniProt Q96GD4); format: functional
[29] = biological target: T9, Bcl-2-related protein A1 (Mus musculus, UniProt Q07440); format: functional;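 also: confirmatory dose–response counterscreen on Bfl-1, used to check hits from a UBC13 polyubiquitin inhibitor campaign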
T9 sequence (Q07440 whole entry): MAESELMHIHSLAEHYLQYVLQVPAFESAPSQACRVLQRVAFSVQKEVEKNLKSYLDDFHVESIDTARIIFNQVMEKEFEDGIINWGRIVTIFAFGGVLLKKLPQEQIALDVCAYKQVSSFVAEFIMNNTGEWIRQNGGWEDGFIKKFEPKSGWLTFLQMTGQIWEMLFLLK

[30] = biological target: T10, Ubiquitin-conjugating enzyme E2 N (Homo sapiens, UniProt P61088); format: functional
T10 sequence (P61088 whole entry): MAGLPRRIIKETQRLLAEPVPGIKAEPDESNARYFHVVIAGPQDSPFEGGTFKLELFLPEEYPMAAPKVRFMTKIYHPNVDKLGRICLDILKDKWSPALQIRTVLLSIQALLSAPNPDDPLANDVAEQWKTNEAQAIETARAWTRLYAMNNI

[31] = biological target: T10, Ubiquitin-conjugating enzyme E2 N; format: functional; remark: listed apart in the source

O=C1CC2(CCCC2)CC(=O)N1c1ccccc1
inactive: EC50 [1] > 54.7 µM | EC50 [2] > 54.7 µM | IC50 [3] > 89.1 µM | EC50 [4] > 55.9 µM

Cc1nnc(Sc2cc(NCCCO)c([N+](=O)[O-])c3nonc23)s1
> 32 µM: IC50 [13]
inactive: IC50 [5] > 32 µM | EC50 [6] > 32 µM | EC50 [8] > 32 µM | EC50 [12] > 31.5 µM | IC50 [19] 10.9 µM
inconclusive: EC50 [9] 21.2 µM
active: EC50 [7] 6.33 µM | IC50 [10] 6.15 µM | IC50 [11] 77.8 µM | IC50 [14] 3.11 µM | EC50 [15] 7.62 µM | IC50 [16] 3.37 µM | AC50 [17] 2.07 µM | EC50 [18] 1.85 µM | IC50 [20] 3.78 µM | IC50 [21] 3.99 µM

Cc1ccccc1CN1C(=O)C(C)Sc2ccc(-c3ccco3)cc21 (stereo not given)
inactive: IC50 [23] > 100 µM
active: IC50 [22] 36.2 µM | IC50 [24] 43.3 µM | IC50 [25] 14.2 µM | IC50 [26] 31.3 µM

Nc1ncnc2sc3c(c12)-c1ccc(NC(=O)Nc2cccc(C(F)(F)F)c2)cc1CC3
active: Ki [27] 0.1 µM | Ki [28] 0.00126 µM

C#CCOCCOCCOCCNc1nc(N2CCN(C(=O)CCCCCCCCCCNC(=O)[C@H](CCCCN)n3cc(C)nn3)CC2)nc(N2CCN(C(=O)CCCCCCCCCCNC(=O)[C@H](CO)n3cc(CCCSC)nn3)CC2)n1
inactive: IC50 [29] > 20 µM | EC50 [2] > 54.7 µM | EC50 [4] > 55.9 µM
active: IC50 [30] 6.96 µM | IC50 [31] 4.05 µM | EC50 [1] > 6.08 µM | IC50 [3] 9.88 µM
